# Earlier results, collected in patent US20050009897A1, “Method of treatment” (priority 2001, published 2005).
# Where two headings read alike, the source gives them in different places.
# Key:
# [1] = 45 hypertensive diabetic patients, cited from earlier work
# [2] = hypertensive patients; cited from earlier work
# [3] = nondiabetic hypertensive individuals; cited from earlier work
# [4] = compared with other β-blockers, angiotensin converting enzyme inhibitors or calcium channel blockers; cited from earlier work
SMILES,fasting glucose [1],fasting insulin [1],glucose disposal [1],insulin sensitivity [1],lipid peroxidation [1],antihypertensive effect ([1]; relative to carvedilol),glycemic control [2],insulin sensitivity [3],lowering blood pressure [4],HbA1c [1]
CC(C)NCC(O)COc1ccc(CC(N)=O)cc1 (stereo not shown) [atenolol],increased,increased,decreased,decreased,no effect,equivalent,significantly reduce,,,
COc1ccccc1OCCNCC(O)COc1cccc2[nH]c3ccccc3c12 (stereo not shown) [carvedilol],decreased,decreased,increased,increased,decreased,,,increases,"as effective as other β-blockers, angiotensin converting enzyme inhibitors or calcium channel blockers",decreased
CC(C)NCC(O)COc1cccc2ccccc12 (stereo not shown) [propranolol],,,,,,,significantly reduce,,,
